≈ marks a conversion by molar mass, not a printed value. Like-named read-outs stand apart in the source and are kept apart here. Marks after values point to notes of the source that are not given here.
Key:
MRSA = test: Minimum bactericidal concentration (MBC) with and without white light; assay type: cell-based, S. aureus; conditions: Staphylococcus aureus, light or radiation study
Method: The bacterial media was inoculated with bacteria and incubated overnight. The bacterial cultures were diluted to 5×10^8 CFU/mL using a McFarland latex turbidity standard (0.5). Compound 1 was diluted with sterile DMSO, which was added to the cell suspension in glass culture tubes. The cells were then incubated for 30 minutes at 37° C. on a rotary shaking incubator at 150 rpm. 500 μL of the treated cell suspension was added to a well on a sterile ceramic drop plate. Non-coherent white light from a Lumacare™ LC-122 unit was used to irradiate the samples. The end of the light probe was placed 3 cm above the sample well, perpendicular to the surface of the sample, and light was applied for 2 minutes (15 seconds light, 15 seconds dark). 200 μL of the irradiated sample was transferred to a 96-well plastic microtiter plate and five ten-fold dilutions were made in the media. 10 μL of each dilution was dripped onto an agar media plate and was allowed to streak down the plate by tilting the plate down. The agar plates were incubated at 37° C. overnight and colony counts were performed to calculate the CFU/mL.
TABLE 14 details the MBC values of compounds 1-6 against MRSA with and without irradiation with white light. Irradiation involved treatment with a LumaCare™ light source at 3 cm from media for 1 min.

HeLa cells = test: Toxicity (IC50) on HeLa cells; assay type: cell-based, human; conditions: cancerous cervical epithelium HeLa cells; for IC50: Homo sapiens
Method: The toxicities of the compounds of the invention were determined for human cancerous cervical epithelium HeLa and normal lung fibroblast WI38 cells. The toxicities of EPIs INF-55 and INF-55Cl were quantified as controls. […] TABLE 2 compares the toxicity of compounds 7-11 on HeLa cells and normal WI38 cells.

VRE = test: MIC against VRE; assay type: cell-based, Enterococcus faecalis
Method: In a 12×75 mm borosilicate glass culture tube, 1 mL of cell suspension was added. Then, compound 7 was added to the cells, and the samples were mixed using a vortex mixer. […] The samples were incubated overnight at 37° C. on a rotary shaking incubator at 100 rpm.

S. aureus (ATCC 29213) = test: MIC against drug sensitive S. aureus; assay type: cell-based; conditions: Staphylococcus aureus
[1] = MIC against MRSA isolates; assay type: cell-based, S. aureus; conditions: Staphylococcus aureus
Method: (§1) The MICs of S. aureus ATCC 33591, BAA-44, BAA-1707, BAA-1717, BAA-1720, BAA-1747, BAA-1754, BAA-1761, BAA-1763, BAA-1764, and BAA-1766 were measured using a cell concentration of about 5×10^5 colony forming units (CFU)/mL. In a 96-well microtiter plate, two-fold dilutions were made of each drug (starting with 100 μM) in 100 μL of a cell suspension in trypticase soy broth (TSB). The samples were incubated overnight at 37° C. on a rotary shaking incubator set at 100 revolutions per minute (rpm) and were visually inspected for turbidity. A 20% well-volume of 3-(4,5-dimethylthiazol-2-yl)-2,5-diphenyltetrazolium bromide (MTT reagent, 5 mg/mL) was added, and the samples were incubated for about 20 minutes. The MICs were determined as the lowest concentration at which full visual inhibition was observed by the unaided eye.

[2] = system: MRSA isolates (S. aureus ATCC 33591, BAA-44, BAA-1707, BAA-1717, BAA-1720, BAA-1747, BAA-1754, BAA-1761, BAA-1763, BAA-1764, BAA-1766); test: MIC against MRSA isolates; assay type: cell-based
Method: as §1

[3] = 1 min, LumaCare light source at 3 cm from media for 1 min, read-out: MBC with irradiation
[4] = no irradiation, read-out: MBC in the dark
[5] = Enterococcus, TABLE 23, read-out: VRE MIC
[6] = ATCC29213, ATCC 29213, read-out: S. aureus MIC
[7] = MRSA (ATCC BAA-44), TABLE 21, read-out: MRSA MIC
[8] = antibiotics, MRSA isolate ATCC BAA-44
[9] = antibiotics, MRSA isolate ATCC BAA-1717
[10] = Enterococcus, common antibiotics, TABLE 24, read-out: MIC
[11] = antibiotics, MRSA isolate ATCC 33591
[12] = antibiotics, MRSA isolate ATCC BAA-1707
[13] = antibiotics, MRSA isolate ATCC BAA-1720
[14] = antibiotics, MRSA isolate ATCC BAA-1747
[15] = antibiotics, MRSA isolate ATCC BAA-1754
[16] = antibiotics, MRSA isolate ATCC BAA-1761
[17] = antibiotics, MRSA isolate ATCC BAA-1763
[18] = antibiotics, MRSA isolate ATCC BAA-1764
[19] = antibiotics, MRSA isolate ATCC BAA-1766

C(=C\c1[nH]c2ccccc2c1/C=C/c1ccccc1)/c1ccccc1 [Compound 2]
MBC (MRSA; [3]): 0.5 µM (≈ 0.161 µg/mL) | MBC (MRSA; [4]): 100 µM (≈ 32.1 µg/mL)

COc1ccc(/C=C/c2[nH]c3ccccc3c2/C=C/c2ccc(OC)cc2)cc1 [Compound 3]
MBC (MRSA; [3]): 0.5 µM (≈ 0.191 µg/mL) | MBC (MRSA; [4]): 200 µM (≈ 76.3 µg/mL)

Clc1ccccc1/C=C/c1[nH]c2ccccc2c1/C=C/c1ccccc1Cl [Compound 5]
MBC (MRSA; [3]): 0.5 µM (≈ 0.195 µg/mL) | MBC (MRSA; [4]): 200 µM (≈ 78.1 µg/mL)

Clc1cccc(/C=C/c2[nH]c3ccccc3c2/C=C/c2cccc(Cl)c2)c1 [Compound 6]
MBC (MRSA; [3]): 1 µM (≈ 0.39 µg/mL) | MBC (MRSA; [4]): 200 µM (≈ 78.1 µg/mL)

Clc1ccc(-c2cc3[nH]c4ccccc4c3cc2-c2ccc(Cl)cc2)cc1 [Compound 13]
IC50 (HeLa cells): 16.4 ± 1.1 µM

Clc1ccc(Sc2c(-c3ccc(Br)cc3)[nH]c3ccccc23)cc1 [Compound 14]
IC50 (HeLa cells): 12.2 ± 1.6 µM

Clc1ccc(-c2cc3ccccc3[nH]2)cc1 [Compound 15]
IC50 HeLa (HeLa cells): Non-Toxic

Clc1ccc(Sc2c(-c3ccc(Cl)cc3)[nH]c3ccccc23)cc1 [Compound 16]
IC50 (HeLa cells): 6.4 ± 1 µM

O=S(=O)(c1ccc(Cl)cc1)c1c(-c2ccc(Cl)cc2)[nH]c2ccccc12 [Compound 18]
IC50 (HeLa cells): 14.3 ± 0.7 µM

O=C(c1ccc(Cl)cc1)c1c(-c2ccc(Cl)cc2)[nH]c2ccccc12 [Compound 19]
IC50 (HeLa cells): 35.8 ± 6 µM

O=[N+]([O-])c1ccc2[nH]c(-c3ccc(Cl)cc3)cc2c1 [Compound 20]
IC50 HeLa (HeLa cells): Non-Toxic

Clc1ccc(Sc2c(-c3ccc(Cl)cc3)[nH]c3ccc(Cl)cc23)cc1 [Compound 21]
IC50 (HeLa cells): 8.2 ± 1 µM

Clc1ccc(Oc2c(-c3ccc(Cl)cc3)[nH]c3ccc(Br)cc23)cc1 [Compound 22]
IC50 (HeLa cells): 3.2 ± 0.4 µM

Fc1ccc2[nH]c(-c3ccc(Cl)cc3)c(Oc3ccc(Cl)cc3)c2c1 [Compound 23]
IC50 (HeLa cells): 12.9 ± 3.2 µM

COc1ccc2[nH]c(-c3ccc(Cl)cc3)c(Oc3ccc(Cl)cc3)c2c1 [Compound 24]
IC50 (HeLa cells): 23.9 ± 1.8 µM

Fc1cccc2c(Oc3ccc(Cl)cc3)c(-c3ccc(Cl)cc3)[nH]c12 [Compound 25]
IC50 (HeLa cells): 13 ± 3.5 µM

CCOC(=O)c1ccc2[nH]c(-c3ccc(Cl)cc3)c(Oc3ccc(Cl)cc3)c2c1 [Compound 26]
IC50 (HeLa cells): 18.6 ± 1.1 µM

Clc1ccc(/N=N/c2c(-c3ccc(Br)cc3)[nH]c3ccccc23)cc1 [Compound 27]
IC50 (HeLa cells): 12.5 ± 0.2 µM

Brc1ccc(/N=N/c2c(-c3ccc(Br)cc3)[nH]c3ccccc23)cc1 [Compound 28]
IC50 (HeLa cells): 8.6 ± 1.4 µM

Fc1ccc(/N=N/c2c(-c3ccc(F)cc3)[nH]c3ccccc23)cc1 [Compound 29]
IC50 (HeLa cells): 11.6 ± 0.7 µM

COC(=O)n1c(Br)c(Br)c2ccccc21 [Compound 31]
IC50 HeLa (HeLa cells): Non-Toxic

Cc1onc(-c2c(Cl)cccc2Cl)c1C(=O)N[C@@H]1C(=O)N2[C@@H]1SC(C)(C)[C@@H]2C(=O)O [Dicloxicillin, reference compound]
MIC (VRE; [5]): 4 µg/mL (≈ 8.5 µM) | MIC (S. aureus (ATCC 29213); [6]): 50 to 100 µg/mL (≈ 106 to 213 µM)

C[C@H]1c2cccc(O)c2C(=O)C2=C(O)[C@]3(O)C(=O)C(C(N)=O)=C(O)[C@@H](N(C)C)[C@@H]3[C@@H](O)[C@@H]21 [Doxycycline, reference compound]
MIC [1, 7]: 3.12 µg/mL (≈ 7.02 µM) | MIC (VRE; [5]): 0.25 to 0.5 µg/mL (≈ 0.563 to 1.13 µM) | MIC (S. aureus (ATCC 29213); [6]): 3.12 µg/mL (≈ 7.02 µM)

CC[C@H]1OC(=O)[C@H](C)[C@@H](O[C@H]2C[C@@](C)(OC)[C@@H](O)[C@H](C)O2)[C@H](C)[C@@H](O[C@@H]2O[C@H](C)C[C@H](N(C)C)[C@H]2O)[C@](C)(O)C[C@@H](C)C(=O)[C@H](C)[C@@H](O)[C@]1(C)O [Erythromycin, reference compound]
MIC [1, 8]: > 1000 µg/mL | MIC [1, 9]: 30 µg/mL (≈ 40.9 µM) | MIC (VRE; [10]): > 32 µg/mL | S/R (VRE; TABLE 24): R

O=[N+]([O-])c1ccc2[nH]c(-c3ccccc3)cc2c1 [INF-55, reference compound]
IC50 HeLa (HeLa cells): Non-Toxic

CC1(C)S[C@@H]2[C@H](NC(=O)Cc3ccccc3)C(=O)N2[C@H]1C(=O)O [Penicillin G]
S/R (VRE; TABLE 24): S | MIC (VRE; common antibiotics, TABLE 24): 2 µg/mL (≈ 5.98 µM)

CN(C)[C@@H]1C(O)=C(C(N)=O)C(=O)[C@@]2(O)C(O)=C3C(=O)c4c(O)cccc4[C@@](C)(O)[C@H]3C[C@@H]12 [Tetracycline]
MIC (VRE; [10]): < 0.5 µg/mL | S/R (VRE; TABLE 24): S

NC[C@H]1O[C@H](O[C@H]2[C@H](O)[C@@H](O[C@H]3O[C@H](CO)[C@@H](O)[C@H](N)[C@H]3O)[C@H](N)C[C@@H]2N)[C@H](N)C[C@@H]1O [Tobramycin, reference compound]
MIC [1, 7]: > 5000 µg/mL | MIC (VRE; [5]): > 200 µg/mL | MIC (S. aureus (ATCC 29213); [6]): 0.25 µg/mL (≈ 0.535 µM)

CN[C@H](CC(C)C)C(=O)N[C@H]1C(=O)N[C@@H](CC(N)=O)C(=O)N[C@H]2C(=O)N[C@H]3C(=O)N[C@H](C(=O)N[C@H](C(=O)O)c4cc(O)cc(O)c4-c4cc3ccc4O)[C@H](O)c3ccc(c(Cl)c3)Oc3cc2cc(c3O[C@@H]2O[C@H](CO)[C@@H](O)[C@H](O)[C@H]2O[C@H]2C[C@](C)(N)[C@H](O)[C@H](C)O2)Oc2ccc(cc2Cl)[C@H]1O [Vancomycin, reference compound]
MIC [1, 11]: < 3.1 µg/mL | MIC [1, 8]: 3.1 µg/mL (≈ 2.14 µM) | MIC [1, 12]: < 3.1 µg/mL | MIC [1, 9]: < 1.6 µg/mL | MIC [1, 13]: < 3.1 µg/mL | MIC [1, 14]: < 3.1 µg/mL | MIC [1, 15]: < 3.1 µg/mL | MIC [1, 16]: < 3.1 µg/mL | MIC [1, 17]: < 3.1 µg/mL | MIC [1, 18]: < 3.1 µg/mL | MIC [1, 19]: < 3.1 µg/mL | MIC ([1]; read-out: MRSA MIC, MRSA (ATCC BAA-44), TABLE 21): 3.12 µg/mL (≈ 2.15 µM) | MIC (VRE; Enterococcus): 64 µg/mL (≈ 44.2 µM) | MIC (VRE; Enterococcus, read-out: VRE MIC): > 40 µg/mL | S/R (VRE; TABLE 24): R | MIC (S. aureus (ATCC 29213); ATCC29213, read-out: S. aureus MIC): 2 µg/mL (≈ 1.38 µM)

Gentamycin [reference compound]
MIC [2, 11]: >100* μg/mL | MIC [2, 8]: >200* μg/mL | MIC [2, 12]: <3.1 µg/mL | MIC [2, 9]: 3.1 µg/mL | MIC [2, 13]: <3.1 µg/mL | MIC [2, 14]: 6.3 µg/mL | MIC [2, 15]: <3.1 µg/mL | MIC [2, 16]: <3.1 µg/mL | MIC [2, 17]: 3 to 6 µg/mL | MIC [2, 18]: <3.1 µg/mL | MIC [2, 19]: 12.5* μg/mL

INF-55Cl [reference compound]
IC50 HeLa (HeLa cells): Non-Toxic

Penicillin [reference compound]
MIC ([2]; Penicillin, MRSA isolate ATCC BAA-44): 1.6* mg/mL | MIC ([2]; Penicillin, MRSA isolate ATCC BAA-1717): 1* mg/mL

Reference: patent publication US9834514B2, “Antibiotic sensitivity-restoring and photosensitive agents” (New Mexico Tech Research Foundation, priority 2015, dated 2017)
